Earlier results in patent US11065266B2, “Method of treating melanoma using an inhibitor of an atypical protein kinase C” (UNIVERSITY OF SOUTH FLORIDA, priority 2016, dated 2021).

Target: T1, PKC-ι (Homo sapiens, UniProt P41743)
T1 sequence (P41743 1-596): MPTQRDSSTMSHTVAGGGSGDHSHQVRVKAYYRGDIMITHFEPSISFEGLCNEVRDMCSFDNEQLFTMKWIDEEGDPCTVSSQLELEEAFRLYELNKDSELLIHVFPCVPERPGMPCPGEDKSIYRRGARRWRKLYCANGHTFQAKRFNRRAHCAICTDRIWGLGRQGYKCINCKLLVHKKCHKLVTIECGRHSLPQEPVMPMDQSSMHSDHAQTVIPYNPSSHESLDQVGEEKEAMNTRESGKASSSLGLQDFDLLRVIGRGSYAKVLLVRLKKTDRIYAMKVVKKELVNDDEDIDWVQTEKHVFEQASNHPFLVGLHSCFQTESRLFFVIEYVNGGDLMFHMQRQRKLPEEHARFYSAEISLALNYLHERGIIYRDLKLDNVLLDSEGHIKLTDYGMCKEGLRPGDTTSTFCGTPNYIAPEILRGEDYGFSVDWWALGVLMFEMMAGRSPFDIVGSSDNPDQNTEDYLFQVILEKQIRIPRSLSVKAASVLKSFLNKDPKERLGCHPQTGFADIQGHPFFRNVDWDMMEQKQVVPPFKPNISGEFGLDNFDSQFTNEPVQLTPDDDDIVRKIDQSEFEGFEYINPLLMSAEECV
Settings: cited from earlier work

SMILES	binding to PKC-ι
O=C([O-])CC([S-])C(=O)[O-].[Au+].[Na+].[Na+] (centres unmarked) [Sodium aurothiomalate]	low micromolar range
OC[C@H]1O[C@H]([S-])[C@H](O)[C@@H](O)[C@@H]1O.[Au+] [aurothioglucose]	low micromolar range
